Here are results for 23 compounds from US8299048B2, “Hexahydrocyclopentyl[f]indazole sulfonamides and derivatives thereof as selective glucocorticoid receptor modulators” (Merck Sharp & Dohme Corp., priority 2008, dated 2012).

The term Ki denotes a measure of affinity in units of concentration, obtained from inhibition or displacement. The low end stands for a stronger hold on the target, the high end for a looser hold on the target.

The test concerns the target T1, glucocorticoid receptor (Homo sapiens, UniProt P04150).
T1 construct: endogenous in cells
T1 sequence (P04150 1-777): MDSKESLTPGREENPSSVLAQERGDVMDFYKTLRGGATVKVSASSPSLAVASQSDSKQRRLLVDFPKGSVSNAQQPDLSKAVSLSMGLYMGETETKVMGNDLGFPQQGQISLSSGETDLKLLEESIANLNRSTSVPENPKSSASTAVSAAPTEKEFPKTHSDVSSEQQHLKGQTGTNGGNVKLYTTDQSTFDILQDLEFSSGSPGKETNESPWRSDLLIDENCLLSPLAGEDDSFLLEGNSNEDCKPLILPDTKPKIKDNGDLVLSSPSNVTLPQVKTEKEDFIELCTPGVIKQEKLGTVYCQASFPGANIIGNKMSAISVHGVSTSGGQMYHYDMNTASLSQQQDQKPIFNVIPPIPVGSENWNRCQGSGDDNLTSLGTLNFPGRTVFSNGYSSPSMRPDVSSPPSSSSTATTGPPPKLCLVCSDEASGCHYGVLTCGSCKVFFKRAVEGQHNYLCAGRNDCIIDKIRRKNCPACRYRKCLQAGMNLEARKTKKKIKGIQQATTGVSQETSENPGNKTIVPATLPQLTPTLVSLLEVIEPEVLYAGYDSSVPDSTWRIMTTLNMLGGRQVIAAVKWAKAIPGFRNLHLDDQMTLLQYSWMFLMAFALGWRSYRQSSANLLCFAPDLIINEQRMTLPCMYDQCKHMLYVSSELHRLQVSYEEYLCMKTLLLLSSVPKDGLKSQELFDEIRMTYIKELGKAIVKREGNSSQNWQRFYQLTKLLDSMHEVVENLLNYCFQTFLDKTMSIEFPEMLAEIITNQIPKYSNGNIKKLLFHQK
The experiment in a line: Ligand binding assay (GR BIND). In short, it runs like this: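 Displacement of tritiated dexamethasone (6 nM trace solution) from receptor in cell supernatant was measured after overnight incubation at 4 °C in molybdate-containing TEGM, pH 7.2, 2% ethanol. Hydroxylapatite pulled down the receptor–ligand complex for filter washing and scintillation counting, with dexamethasone as reference.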

In turn, `C[C@]12Cc3cnn(-c4ccc(F)cc4)c3C=C1CC[C@@H]2CN(CC1CC1)S(=O)(=O)/C=C/c1ccccc1` [Example 13, (E)-N-(cyclopropylmethyl)-N-{[(4αR,5S)-1-(4-fluorophenyl)-4α-methyl-1,4,4α,5,6,7-hexahydrocyclopenta[f]indazol-5-yl]methyl}-2-phenylethylenesulfonamide] returned a Ki of 0.6 nM.

`CNC(=O)Nc1ccc(S(=O)(=O)N(CC2CC2)C[C@H]2CCC3=Cc4c(cnn4-c4ccc(F)cc4)C[C@@]32C)c(Cl)c1` [Example 14, 2-chloro-N-(cyclopropylmethyl)-N-{[(4αR,5S)-1-(4-fluorophenyl)-4α-methyl-1,4,4α,5,6,7-hexahydrocyclopenta[f]indazol-5-yl]methyl}-4-{[(methylamino)carbonyl]amino}-benzenesulfonamide] displayed a Ki of 1.6 nM.

For the compound `C[C@]12Cc3cnn(-c4ccc(F)cc4)c3C=C1CC[C@@H]2CN(CC1CC1)S(=O)(=O)c1ccc(F)c(Cl)c1` [Example 15, 3-chloro-N-(cyclopropylmethyl)-4-fluoro-N-{[(4αR,5S)-1-(4-fluorophenyl)-4α-methyl-1,4,4α,5,6,7-hexahydrocyclopenta[f]indazol-5-yl]methyl}benzenesulfonamide], the Ki stood at 1.8 nM.

As to `C[C@]12Cc3cnn(-c4ccc(F)cc4)c3C=C1CC[C@@H]2CN(CCC#N)S(=O)(=O)c1ccccc1F` [Example 16, N-(2-cyanoethyl)-2-fluoro-N-{[(4αR,5S)-1-(4-fluorophenyl)-4α-methyl-1,4,4α,5,6,7-hexahydrocyclopenta[f]indazol-5-yl]methyl}benzenesulfonamide], the inhibition constant Ki worked out at 3 nM.

Regarding `C[C@]12Cc3cnn(-c4ccc(F)cc4)c3C=C1CC[C@@H]2CN(CCO)S(=O)(=O)c1ccccc1F` [Example 17, 2-fluoro-N-{[(4αR,5S)-1-(4-fluorophenyl)-4α-methyl-1,4,4α,5,6,7-hexahydrocyclopenta[f]indazol-5-yl]methyl}-N-(2-hydroxyethyl)benzenesulfonamide], the Ki is 2.1 nM.

Compound `COC(=O)c1ccccc1S(=O)(=O)N(CC1CC1)C[C@H]1CCC2=Cc3c(cnn3-c3ccc(F)cc3)C[C@@]21C` [Example 18, methyl 2-[((cyclopropylmethyl){[(4αR,5S)-1-(4-fluorophenyl)-4α-methyl-1,4,4α,5,6,7-hexahydrocyclopenta[f]indazol-5 yl]methyl}amino)sulfonyl]benzoate] had a Ki of 0.8 nM.

Take `C[C@]12Cc3cnn(-c4ccc(F)cc4)c3C=C1CC[C@@H]2CN(CCO)S(=O)(=O)c1ccc(F)c(Cl)c1` [Example 19, 3-chloro-4-fluoro-N-{[(4αR,5S)-1-(4-fluorophenyl)-4α-methyl-1,4,4α,5,6,7-hexahydrocyclopenta[f]indazol-5-yl]methyl}-N-(2-hydroxyethyl)benzenesulfonamide]: the affinity, expressed as Ki, was 4 nM.

Compound `C[C@]12Cc3cnn(-c4ccc(F)cc4)c3C=C1CC[C@@H]2CN(CC#N)S(=O)(=O)c1ccc(F)c(Cl)c1` [Example 20, 3-chloro-N-(cyanomethyl)-4-fluoro-N-{[(4αR,5S)-1-(4-fluorophenyl)-4α-methyl-1,4,4α,5,6,7-hexahydrocyclopenta[f]indazol-5-yl]methyl}benzenesulfonamide] had a Ki of 2.2 nM.

`C[C@]12Cc3cnn(-c4ccc(F)cc4)c3C=C1CC[C@@H]2CN(CC1CC1)S(=O)(=O)Cc1ccccc1` [Example 21, N-(cyclopropylmethyl)-N-{[(4αR,5S)-1-(4-fluorophenyl)-4α-methyl-1,4,4α,5,6,7-hexahydrocyclopenta[f]indazol-5-yl]methyl}-1-phenylmethanesulfonamide] had a Ki of 3 nM.

`Cc1oncc1S(=O)(=O)N(CC#N)C[C@H]1CCC2=Cc3c(cnn3-c3ccc(F)cc3)C[C@@]21C` [Example 23, N-(cyanomethyl)-N-{[(4αR,5S)-1-(4-fluorophenyl)-4α-methyl-1,4,4α,5,6,7-hexahydrocyclopenta[f]indazol-5-yl]methyl}-5-methylisoxazole-4-sulfonamide] gave a Ki of 4.9 nM.

`C[C@]12Cc3cnn(-c4ccc(F)cc4)c3C=C1CC[C@@H]2CN(CC#N)S(=O)(=O)c1cc(Cl)c(Cl)s1` [Example 24, 4,5-dichloro-N-(cyanomethyl)-N-{[(4αR,5S)-1-(4-fluorophenyl)-4α-methyl-1,4,4α,5,6,7-hexahydrocyclopenta[f]indazol-5-yl]methyl}thiophene-2-sulfonamide] yielded an inhibition constant (Ki) of 5.3 nM.

With `C[C@]12Cc3cnn(-c4ccc(F)cc4)c3C=C1CC[C@@H]2CN(CC#N)S(=O)(=O)c1ccc(F)c(F)c1` [Example 25, N-(cyanomethyl)-3,4-difluoro-N-{[(4αR,5S)-1-(4-fluorophenyl)-4α-methyl-1,4,4α,5,6,7-hexahydrocyclopenta[f]indazol-5-yl]methyl}benzenesulfonamide], the affinity corresponds to a Ki of 2.5 nM.

Take `C[C@]12Cc3cnn(-c4ccc(F)cc4)c3C=C1CC[C@@H]2CN(CC#N)S(=O)(=O)c1cccc(Cl)c1Cl` [Example 26, 2,3-dichloro-N-(cyanomethyl)-N-{[(4αR,5S)-1-(4-fluorophenyl)-4α-methyl-1,4,4α,5,6,7-hexahydrocyclopenta[f]indazol-5-yl]methyl}benzenesulfonamide]: the affinity, expressed as Ki, was 9.7 nM.

As to `C[C@]12Cc3cnn(-c4ccc(F)cc4)c3C=C1CC[C@@H]2CN(CC#N)S(=O)(=O)c1ccc(Cl)c(C(F)(F)F)c1` [Example 27, 4-chloro-N-(cyanomethyl)-N-{[(4αR,5S)-1-(4-fluorophenyl)-4α-methyl-1,4,4α,5,6,7-hexahydrocyclopenta[f]indazol-5-yl]methyl}-3-(trifluoromethyl)benzenesulfonamide], the Ki came out at 8.8 nM.

Turning to `C[C@]12Cc3cnn(-c4ccc(F)cc4)c3C=C1CC[C@@H]2CN(CC#N)S(=O)(=O)c1ccc(C#N)cc1` [Example 28, 4-cyano-N-(cyanomethyl)-N-{[(4αR,5S)-1-(4-fluorophenyl)-4α-methyl-1,4,4α,5,6,7-hexahydrocyclopenta[f]indazol-5-yl]methyl}benzenesulfonamide], the inhibition constant Ki was determined as 2.3 nM.

`Cc1cc(S(=O)(=O)N(CC#N)C[C@H]2CCC3=Cc4c(cnn4-c4ccc(F)cc4)C[C@@]32C)c(C)cc1Cl` [Example 29, 4-chloro-N-(cyanomethyl)-N-{[(4αR,5S)-1-(4-fluorophenyl)-4α-methyl-1,4,4α,5,6,7-hexahydrocyclopenta[f]indazol-5-yl]methyl}-2,5-dimethylbenzenesulfonamide]: the Ki amounted to 8.4 nM.

Compound `C[C@]12Cc3cnn(-c4ccc(F)cc4)c3C=C1CC[C@@H]2CN(CC#N)S(=O)(=O)Cc1cccc(C(F)(F)F)c1` [Example 30, N-(cyanomethyl)-N-{[(4αR,5S)-1-(4-fluorophenyl}-4α-methyl-1,4,4α,5,6,7-hexahydrocyclopenta[f]indazol-5-yl]methyl}-1-[3-(trifluoromethyl)phenyl]methanesulfonamide] returned a Ki of 7.6 nM.

As for `Cc1ccc(S(=O)(=O)N(CC#N)C[C@H]2CCC3=Cc4c(cnn4-c4ccc(F)cc4)C[C@@]32C)s1` [Example 31, N-(cyanomethyl)-N-{[(4αR,5S)-1-(4-fluorophenyl}-4α-methyl-1,4,4α,5,6,7-hexahydrocyclopenta[f]indazol-5-yl]methyl}-5-methylthiophene-2-sulfonamide], the Ki is 6.1 nM.

As for `Cn1cc(S(=O)(=O)N(CC#N)C[C@H]2CCC3=Cc4c(cnn4-c4ccc(F)cc4)C[C@@]32C)c(C(F)(F)F)n1` [Example 32, N-(cyanomethyl)-N-{[(4αR,5S)-1-(4-fluorophenyl}-4α-methyl-1,4,4α,5,6,7-hexahydrocyclopenta[f]indazol-5-yl]methyl}-1-methyl-3-(trifluoromethyl)-1H-pyrazole-4-sulfonamide], the inhibitory constant (Ki) was 3.9 nM.

For the compound `Cc1cc(S(=O)(=O)N(CC#N)C[C@H]2CCC3=Cc4c(cnn4-c4ccc(F)cc4)C[C@@]32C)c(C)o1` [Example 33, (4αR,5S)-5-({(cyanomethyl)[(2,5-dimethyl-3-furyl)sulfonyl]amino}methyl)-1-(4-fluorophenyl)-4α-methyl-1,4,4α,5,6,7-hexahydrocyclopenta[f]indazol-2-ium], the Ki was determined as 8.8 nM.

`COC(=O)c1sccc1S(=O)(=O)N(CC#N)C[C@H]1CCC2=Cc3c(cnn3-c3ccc(F)cc3)C[C@@]21C` [Example 34, methyl 3-[((cyanomethyl){[(4αR,5S)-1-(4-fluorophenyl)-4α-methyl-1,4,4α,5,6,7-hexahydrocyclopenta[f]indazol-5-yl]methyl}amino)sulfonyl]thiophene-2-carboxylate]: the Ki is 1.7 nM.

Take `Cn1nc(C(F)(F)F)cc1-c1ccc(S(=O)(=O)N(CC#N)C[C@H]2CCC3=Cc4c(cnn4-c4ccc(F)cc4)C[C@@]32C)s1` [Example 35]: the affinity, expressed as Ki, was 5.1 nM.

As to `C[C@]12Cc3cnn(-c4ccc(F)cc4)c3C=C1CC[C@@H]2CN(CC#N)S(=O)(=O)c1cccc(C#N)c1` [Example 36, 3-cyano-N-(cyanomethyl)-N-{[(4αR,5S)-1-(4-fluorophenyl)-4α-methyl-1,4,4α,5,6,7-hexahydrocyclopenta[f]indazol-5-yl]methyl}benzenesulfonamide], the affinity corresponds to a Ki of 2.5 nM.
